Several values for one entry are separate records, joined by “and”; a condition that tells them apart may be missing. Equal entries are not always repeated. Where two headings read alike, the source gives them in different places.
Tests used:
Format in all cases: in vivo
[1] = system: Spodoptera littoralis (Egyptian cotton leaf worm); test: Spodoptera littoralis larvicide L1, feeding/contact, cotton leaf discs; conditions: single compound
Source text: (§1) The action to be expected E for a given active ingredient combination obeys the so-called COLBY formula and can be calculated as follows (COLBY, S.R. “Calculating synergistic and antagonistic responses of herbicide combination”. Weeds, Vol. 15, pages 20-22; 1967):
(§2) ppm=milligrams of active ingredient (=a.i.) per liter of spray mixture X=% action by active ingredient A) using p ppm of active ingredient Y=% action by active ingredient B) using q ppm of active ingredient.
(§3) According to COLBY, the expected (additive) action of active ingredients A)+B) using p+q ppm of active ingredient is
(§4) If the action actually observed (O) is greater than the expected action (E), then the action of the combination is super-additive, i.e. there is a synergistic effect. In mathematical terms the synergism factor SF corresponds to O/E. In the agricultural practice an SF of ≧1.2 indicates significant improvement over the purely complementary addition of activities (expected activity), while an SF of ≦0.9 in the practical application routine signals a loss of activity compared to the expected activity.
Spodoptera Littoralis (Egyptian Cotton Leaf Worm)
(Larvicide L1, Feeding/Contact)
Cotton leaf discs are placed on agar in Petri dishes and sprayed with test solutions in an application chamber. After drying, the leaf discs are infested with 10 L1 larvae. The samples are checked for mortality 5 days after treatment. 3 replicates per treatment were evaluated. (1 PPM=1 mg l^−1)

[2] = system: Heliothis virescens (tobacco budworm); test: Heliothis virescens ovo-larvicide, feeding/contact, eggs on filter paper in Petri dishes; conditions: for activity on eggs: egg mortality, 7 days incubation; for AVERAGE DEAD IN % (LARVAE) / AVERAGE DEAD IN % (EGGS): single compound, 7 days
Source text: as §1, §2, §3, §4
Heliothis Virescens (Tobacco Budworm):
(Ovo-Larvicide, Feeding/Contact)
30-35 fresh eggs (0-24 h old), deposited on filter paper, are placed in Petri dishes on top of a layer of artificial diet and 0.8 ml of diluted test solutions are pipetted onto them. After an incubation period of 7 days, samples are checked for egg and larval mortality. 3 replicates per treatment were evaluated.

[3] = system: Heliothis virescens (tobacco budworm); test: Heliothis virescens eggs in 24-well microtiter plate on artificial diet, larval mortality; conditions: for pest or weed control at 25 ppm / pest or weed control at 50 ppm / pest or weed control at 100 ppm / pest or weed control at 200 ppm / pest or weed control at 400 ppm / pest or weed control at 800 ppm / pest or weed control at 6.25 ppm / pest or weed control at 12.5 ppm / pest or weed control at 0.00625 ppm / pest or weed control at 0.0125 ppm / pest or weed control at 0.025 ppm / pest or weed control at 0.05 ppm / pest or weed control at 0.1 ppm / pest or weed control at 0.2 ppm: Heliothis virescens, 96 h, read-out: AVERAGE DEAD IN %
Source text: as §1, §2, §3, §4
Heliothis Virescens (Tobacco Budworm)
Eggs (0-24 h old) are placed in 24-well microtiter plate on artificial diet and treated with test solutions (DMSO) by pipetting. After an incubation period of 4 days, samples are checked for larval mortality.

[4] = system: Tetranychus urticae (two spotted spider mite); test: Tetranychus urticae contact/feeding activity on bean plants, adult mortality
Source text: as §1, §2, §3, §4
Tetranychus Urticae (Two Spotted Spider Mite)
(Contact/Feeding Activity)
Bean plants are infested with mite populations of mixed ages. 1 day after infestation, plants are treated in a spray chamber with diluted test solutions. 1 and 8 days later, samples are checked for adult mortality. 2 replicates per treatment were evaluated.

## CC1=NNC(=O)N(/N=C/c2cccnc2)C1 [Pymetrozine, pymetrozine]
[1]; 100 PPM AI
  AVERAGE DEAD IN % AFTER 5 DAYS: 17% and 7%
[1]; 100 ppm AI
  AVERAGE DEAD IN % AFTER 5 DAYS: 7%
[1]; 200 PPM AI
  AVERAGE DEAD IN % AFTER 5 DAYS: 20% and 17%
[1]; 200 ppm AI
  AVERAGE DEAD IN % AFTER 5 DAYS: 17%
[2]
  activity on eggs: inactive
[2]; 100 ppm AI, larvae
  AVERAGE DEAD IN % (LARVAE): 0%
[2]; 200 PPM AI
  AVERAGE DEAD IN % (LARVAE): 37%
[2]; 200 ppm AI, larvae
  AVERAGE DEAD IN % (LARVAE): 40%
[3]; Pymetrozine alone 25 ppm AI
  pest or weed control at 25 ppm: 0%
[3]; Pymetrozine alone 50 ppm AI
  pest or weed control at 50 ppm: 0%
[3]; Pymetrozine alone 100 ppm AI
  pest or weed control at 100 ppm: 0%
[3]; Pymetrozine alone 200 ppm AI
  pest or weed control at 200 ppm: 0%
[3]; Pymetrozine alone 400 ppm AI
  pest or weed control at 400 ppm: 0%
[3]; Pymetrozine alone 800 ppm AI
  pest or weed control at 800 ppm: 0%
[3]; single compound at 25 ppm AI
  pest or weed control at 25 ppm: 0%
[3]; single compound at 50 ppm AI
  pest or weed control at 50 ppm: 0%
[3]; single compound at 100 ppm AI
  pest or weed control at 100 ppm: 0%
[3]; single compound at 200 ppm AI
  pest or weed control at 200 ppm: 0%
[3]; single compound at 400 ppm AI
  pest or weed control at 400 ppm: 0%
[3]; single compound at 800 ppm AI
  pest or weed control at 800 ppm: 0%
[4]; 200 ppm alone
  AVERAGE DEAD IN % AFTER 8 DAYS: 0%
[4]; Pymetrozine alone 200 ppm AI
  AVERAGE DEAD IN % AFTER 1 DAY: 5%

## emamectin benzoate
[1]; 0.003125 PPM AI
  AVERAGE DEAD IN % AFTER 5 DAYS: 20%
[1]; 0.00625 PPM AI
  AVERAGE DEAD IN % AFTER 5 DAYS: 23%
[1]; 0.0125 PPM AI
  AVERAGE DEAD IN % AFTER 5 DAYS: 30% and 27%
[2]
  activity on eggs: inactive
[2]; 0.0015 ppm AI, larvae
  AVERAGE DEAD IN % (LARVAE): 5%
[2]; 0.003 ppm AI, larvae
  AVERAGE DEAD IN % (LARVAE): 5%
[2]; 0.006 ppm AI, larvae
  AVERAGE DEAD IN % (LARVAE): 10%
[3]; single compound at 0.00075 ppm AI
  AVERAGE DEAD IN %: 0%
[3]; single compound at 0.0015 ppm AI
  AVERAGE DEAD IN %: 0%
[3]; single compound at 0.003 ppm AI
  AVERAGE DEAD IN %: 0%
[3]; single compound at 0.006 ppm AI
  AVERAGE DEAD IN %: 0%
[3]; single compound at 0.012 ppm AI
  AVERAGE DEAD IN %: 55%
[3]; single compound at 0.024 ppm AI
  AVERAGE DEAD IN %: 93%
[4]; 0.0125 ppm alone
  AVERAGE DEAD IN % AFTER 8 DAYS: 5%
[4]; 0.025 ppm alone
  AVERAGE DEAD IN % AFTER 8 DAYS: 23%
[4]; 0.05 ppm alone
  AVERAGE DEAD IN % AFTER 8 DAYS: 38%
[4]; Emamectin benzoate alone 0.0125 ppm AI
  AVERAGE DEAD IN % AFTER 1 DAY: 0%
[4]; Emamectin benzoate alone 0.025 ppm AI
  AVERAGE DEAD IN % AFTER 1 DAY: 8%
[4]; Emamectin benzoate alone 0.05 ppm AI
  AVERAGE DEAD IN % AFTER 1 DAY: 0%

## CCOC(=O)OC1=C(c2cc(C)ccc2C)C(=O)N[C@]12CC[C@@H](OC)CC2 [Spirotetramat, spirotetramat]
[1]; 25 ppm AI
  AVERAGE DEAD IN % AFTER 5 DAYS: 23%
[1]; 50 PPM AI
  AVERAGE DEAD IN % AFTER 5 DAYS: 17% and 33%
[1]; 50 ppm AI
  AVERAGE DEAD IN % AFTER 5 DAYS: 33%
[1]; 100 PPM AI
  AVERAGE DEAD IN % AFTER 5 DAYS: 43% and 67%
[1]; 100 ppm AI
  AVERAGE DEAD IN % AFTER 5 DAYS: 67%
[2]; 100 ppm AI
  AVERAGE DEAD IN % (EGGS): 0%
[2]; 100 ppm AI, larvae
  AVERAGE DEAD IN % (LARVAE): 78%
[2]; 200 ppm AI
  AVERAGE DEAD IN % (EGGS): 67% and 65%
[2]; 200 ppm AI, larvae
  AVERAGE DEAD IN % (LARVAE): 100% and 98%
[3]; Spirotetramat alone 6.25 ppm AI
  pest or weed control at 6.25 ppm: 0%
[3]; Spirotetramat alone 12.5 ppm AI
  pest or weed control at 12.5 ppm: 0%
[3]; Spirotetramat alone 25 ppm AI
  pest or weed control at 25 ppm: 0%
[3]; Spirotetramat alone 50 ppm AI
  pest or weed control at 50 ppm: 0%
[3]; Spirotetramat alone 100 ppm AI
  pest or weed control at 100 ppm: 0%
[3]; Spirotetramat alone 200 ppm AI
  pest or weed control at 200 ppm: 0%
[3]; single compound at 6.25 ppm AI
  pest or weed control at 6.25 ppm: 0%
[3]; single compound at 12.5 ppm AI
  pest or weed control at 12.5 ppm: 0%
[3]; single compound at 25 ppm AI
  pest or weed control at 25 ppm: 0%
[3]; single compound at 50 ppm AI
  pest or weed control at 50 ppm: 0%
[3]; single compound at 100 ppm AI
  pest or weed control at 100 ppm: 0%
[3]; single compound at 200 ppm AI
  pest or weed control at 200 ppm: 0%
[4]; 0.1 ppm alone
  AVERAGE DEAD IN % AFTER 8 DAYS: 10%
[4]; 0.2 ppm alone
  AVERAGE DEAD IN % AFTER 8 DAYS: 33%
[4]; 0.4 ppm alone
  AVERAGE DEAD IN % AFTER 8 DAYS: 38%
[4]; Spirotetramat alone 0.1 ppm AI
  AVERAGE DEAD IN % AFTER 1 DAY: 13%
[4]; Spirotetramat alone 0.2 ppm AI
  AVERAGE DEAD IN % AFTER 1 DAY: 18%
[4]; Spirotetramat alone 0.4 ppm AI
  AVERAGE DEAD IN % AFTER 1 DAY: 23%

## CC1(C)[C@H](C(=O)O[C@H](C#N)c2cccc(Oc3ccccc3)c2)[C@@H]1/C=C(\Cl)C(F)(F)F (racemic) [Lambda Cyhalothrin, lambda-cyhalothrin]
[1]; 0.05 PPM AI
  AVERAGE DEAD IN % AFTER 5 DAYS: 10% and 20%
[1]; 0.05 ppm AI
  AVERAGE DEAD IN % AFTER 5 DAYS: 20%
[1]; 0.1 ppm AI
  AVERAGE DEAD IN % AFTER 5 DAYS: 37%
[1]; 0.2 ppm AI
  AVERAGE DEAD IN % AFTER 5 DAYS: 57%
[2]; 0.05 ppm AI
  AVERAGE DEAD IN % (EGGS): 0%
[2]; 0.05 ppm AI, larvae
  AVERAGE DEAD IN % (LARVAE): 33%
[2]; 0.1 ppm AI
  AVERAGE DEAD IN % (EGGS): 17%
[2]; 0.1 ppm AI, larvae
  AVERAGE DEAD IN % (LARVAE): 100%
[2]; 0.2 ppm AI
  AVERAGE DEAD IN % (EGGS): 50%
[2]; 0.2 ppm AI, larvae
  AVERAGE DEAD IN % (LARVAE): 100%
[3]; Lambda Cyhalothrin alone 0.00625 ppm AI
  pest or weed control at 0.00625 ppm: 0%
[3]; Lambda Cyhalothrin alone 0.0125 ppm AI
  pest or weed control at 0.0125 ppm: 0%
[3]; Lambda Cyhalothrin alone 0.025 ppm AI
  pest or weed control at 0.025 ppm: 0%
[3]; Lambda Cyhalothrin alone 0.05 ppm AI
  pest or weed control at 0.05 ppm: 0%
[3]; Lambda Cyhalothrin alone 0.1 ppm AI
  pest or weed control at 0.1 ppm: 25%
[3]; Lambda Cyhalothrin alone 0.2 ppm AI
  pest or weed control at 0.2 ppm: 75%
[3]; single compound at 0.00625 ppm AI
  pest or weed control at 0.00625 ppm: 0%
[3]; single compound at 0.0125 ppm AI
  pest or weed control at 0.0125 ppm: 0%
[3]; single compound at 0.025 ppm AI
  pest or weed control at 0.025 ppm: 0%
[3]; single compound at 0.05 ppm AI
  pest or weed control at 0.05 ppm: 0%
[3]; single compound at 0.1 ppm AI
  pest or weed control at 0.1 ppm: 25%
[3]; single compound at 0.2 ppm AI
  pest or weed control at 0.2 ppm: 75%
[4]; 3.125 ppm alone
  AVERAGE DEAD IN % AFTER 1 DAY: 70%
[4]; 6.25 ppm alone
  AVERAGE DEAD IN % AFTER 1 DAY: 90%
  AVERAGE DEAD IN % AFTER 8 DAYS: 85% and 90%
[4]; 12.5 ppm alone
  AVERAGE DEAD IN % AFTER 1 DAY: 83%
  AVERAGE DEAD IN % AFTER 8 DAYS: 98% and 90%
[4]; Lambda Cyhalothrin alone 3.125 ppm AI
  AVERAGE DEAD IN % AFTER 1 DAY: 25%
[4]; Lambda Cyhalothrin alone 6.25 ppm AI
  AVERAGE DEAD IN % AFTER 1 DAY: 55%
[4]; Lambda Cyhalothrin alone 12.5 ppm AI
  AVERAGE DEAD IN % AFTER 1 DAY: 88%

Reference: US20130085064A1, “PESTICIDAL MIXTURES CONTAINING ISOXAZOLINE DERIVATIVES AND INSECTICIDE OR NEMATOICIDAL BIOLOGICAL AGENT” (priority 2010, published 2013)
